Measured values published in patent US7741464B2, “Compositions and methods of using CRMP-1 and its fragments for treating cancer” (Advpharma Inc., priority 2007, dated 2010).
Read-outs that look alike come from different tables or passages of the source. Each block holds one compound with its values, some of them ahead of it.

Legend:
[1] = test system: H520 stable transfectants; experiment: Chemosensitivity (MTT cytotoxicity) of stable transfectants; assay type: cell-based; details: Homo sapiens, read-out: IC50 of chemical agent
Description: Three human cancer cell lines, including lung cancer cell line H520 and two human prostate cancer cell lines (PC-3 and DU145) were applied for selection of stable transfectants. Four expression plasmids, including pNCRMP1, pNCN1, pNCN3, and pNCN4, and the pCI-neo vector (as control plasmid) were used for transfection, respectively. The general cultivation condition and transfection procedures were the same as described in Example 3. The transfected cells were further cultivated under the same conditions as their parental cell lines and selected with 0.6-1 mg antibiotic G418 per ml (Kao et al., Oncogene 16: 546-554 (1998); Xiaolin et al, Cancer Research 65: 9762-9770 (2005)).
Three agents, including caffeic acid phenethyl ester (CAPE; Sigma, US), Adriamycin™ (doxorubicin) (Pharmacia & Upjohn S.P.A. Milan, Italy), and paclitaxel (Taxol; Bristol-Myers Squibb Co., Wallingford, Conn.), were dissolved in DMSO (dimethyl sulfoxide; Sigma) for preparation of stock solution, respectively. A serial dilution was prepared with DPBS buffer for chemosensitivity tests. The human lung squamous carcinoma stable transfectants H520 were treated with both CAPE and Adriamycin™ (doxorubicin) for four different concentrations, e.g. 0.05, 0.01, 0.002, and 0.0004 mM, while the administering of paclitaxel was performed at different concentrations, e.g. 1000, 200, 40, and 8 nM. Both types of prostate stable transfectants were only treated with paclitaxel for eight concentrations ranging from 0.1 mM to 1.28 nM with 1/5 dilution each step.
MTT (3-(4,5-dimethylthiazol-2-yl)-2,5-diphenyltetrazolium bromide; Sigma, Inc.) assay (Monks et al., J. Natl. Cancer Inst. 83:757-766 (1991); Paull et al, J. Natl. Cancer Inst. 81:1088-1092 (1989)) was applied for studying the cytotoxic effect of indicated agent. The absorbance was measured both at 545 nm and at 690 nm (served as reference) using the 96-well spectrophotometer reader (Emax, Molecular Device Inc., California, US) (Chen et al., Yi Xue Za Zhi (Taipei) 46:7-16 (1990)). The relative growth inhibition was calculated as follows: Relative growth inhibition=100%×(1−(OD545nm (Treated cells)−OD690nm(Treated cells))÷(OD545nm(untreated cells)−OD690nm(untreated cells)))
The 50% inhibition concentration (IC50) was determined after graphical plotting of spectrophotometric measurements and interpolation by EXCEL software.

[2] = test system: DU145 transient transfectants; experiment: Chemosensitivity of transient transfectants (cell counting); assay type: cell-based, human; details: read-out: IC50 of chemical agent
Experimental: (§1) Six human cancer cell lines, including human colon cancer cell lines Caco-2, CC-M1, DLD-1; human prostate cancer cell lines DU145, PC-3; and human breast cancer cell line MCF-7, were tested in an experiment on improvement of chemosensitivity. Two expression plasmids, pNCRMP1 and pNCN3, and the pCI-neo vector (control plasmid), were used for transfection, respectively. The general cultivation conditions and transfection procedures were the same as described in Example 3.
(§2) Treatment of transient transfected cell lines using chemical agent was immediately performed as follows, and quantification of viable cells was performed by counting using hemocytometer after 3-days incubation at 37° C.: • (1) Three types of transient transfected human colorectal cancer cells were treated with 5-fluorouracil; • (2) The transient transfected human prostate cancer cell line DU145 was treated with Adriamycin™ (doxorubicin), cyclophosphamide and etoposide; • (3) The transient transfected human prostate cancer cell line PC3 was treated with cyclophosphamide, etoposide, and paclitaxel; and, • (4) The transient transfected human breast cancer cell line MCF-7 was treated with Adriamycin™ (doxorubicin) and paclitaxel.

[3] = test system: MCF-7 transient transfectants; experiment: as above; assay type: cell-based; details: Homo sapiens, MCF7, 72 h, read-out: IC50 of chemical agent
Experimental: as §1, §2

[4] = test system: transient transfected colorectal cell lines (Caco-2, CC-M1, DLD-1); experiment: as above; assay type: cell-based, human; details: with pNCRMP1 or pNCN3 transient transfected colorectal cell lines; data not shown
Experimental: as §1, §2

[5] = test system: PC-3 transient transfectants; experiment: as above; assay type: cell-based; details: Homo sapiens, 72 h
Experimental: as §1, §2

MCF-7 cells = experiment: Antiproliferative effect after transient transfection; assay type: cell-based, human; details: MCF-7, transient transfection, 5-days incubation, normalized to pCI-neo control plasmid
Description: (§3) All cell lines were purchased from Food Industry Research and Development Institute (FIRDI), Hsinshu, Taiwan. They were originated from different tissues or organs, including: • (1) human lung cancer cells: adenocarcinoma A549 (BCRC60074), squamous cell carcinoma H520 (BCRC60124), and large-cell carcinoma H460 (CCRC600373), • (2) human prostate cancer cell: adenocarcinoma PC-3 (CCRC60112) and carcinoma DU145 (CCRC60348) isolated from metastatic brain site; • (3) human colon cancer cells: adenocarcinoma SW 480 (CCRC60249), CC-M1 (BCRC60448), and DLD-1 (CCRC60132); • (4) human breast cancer cells: ductal carcinoma BT-474 (CCRC 60359), MCF-7 (CCRC60436), and ZR-75-1 (CCRC60055); • (5) Chinese hamster lung cell V79-4 (BCRC60183), and • (6) human prostate normal cell PZ-HPV-7 (CCRC60136).
(§4) The cultivation of cell lines was as described as the instruction provided by Food Industry Research and Development Institute (FIRDI), while 10% fetal bovine serum (JRH Biosciences, USA) was supplemented as final concentration, if necessary. The human prostate normal cell line PZ-HPV-7 was maintained in Keratinocyte-SFM medium (Life Technologies, Inc., US).
(§5) Mammalian cells were seeded to 6-well plate (Corning Inc., USA) with a cell density of 2˜8×10^5 and incubated at 37° C. for overnight prior to transfection. Each cell line was respectively transfected with the pCI-neo Mammalian Expression Vector (as control plasmid; Promega, USA) or with the hCRMP-1-related expression plasmid by using Lipofectamine™ Reagent (Invitrogen, #18324-020). A series of expression plasmid containing full-length or partial gene fragment of hCRMP-1, were pNCRMP1, pNCN1, pNCN3, pNCN4, pNCN5, pNCN6, and pNCN7, whose constructions were described in Example 1 and Example 2.
(§6) The nomenclature of transfected cell line was according to the cell line and expression plasmid and characterized as “cell line/expression plasmid.” Quantitation of viable cells after transfection was performed by using hemocytometer after 5-days incubation at 37° C. (R. Ian Freshney: Culture of Animal Cells, A Manual of Basic Technique, Chapter 20, pp. 309-312, WILEY-LISS, Canada (2000)).
(§7) The antiproliferative effect (in percentage) of each cell line transfected with individual expression plasmid was normalized with the same cell line transfected with control plasmid as follows: Antiproliferative effect=100%×(1−(number of cells transfected with expression plasmid÷number of cells transfected with control plasmid))

DU145 cells = experiment: as above; assay type: cell-based, human; details: for selectivity on antiproliferative ability: prostate cancer cells (PC-3, DU145) vs human prostate normal cell line PZ-HPV-7
Description: as §3, §4, §5, §6, §7

H460 cells = experiment: as above; assay type: cell-based, human; details: viable cells counted after 5-days incubation, normalized to pCI-neo control plasmid
Description: as §3, §4, §5, §6, §7

PC-3 cells = experiment: as above; assay type: cell-based, human; details: PC-3, transient transfection, 5-days incubation, normalized to pCI-neo control plasmid
Description: as §3, §4, §5, §6, §7

CC-M1 cells = experiment: as above; assay type: cell-based, human; details: 5-days incubation, normalized to pCI-neo control plasmid
Description: as §3, §4, §5, §6, §7

[6] = test system: poorly differenciated human lung adenocarcinoma cells; details: cells established from a patient; Shih et al., J. Natl. Cancer Inst. 93(18) (2001); cited from earlier work
[7] = NCI-H520, stable transfectant H520/pCI-neo/1 (control plasmid), MTT
[8] = NCI-H520, stable transfectant H520/pNCN1/1, MTT
[9] = NCI-H520, stable transfectant H520/pNCN3/1, MTT
[10] = NCI-H520, stable transfectant H520/pNCN4/1, MTT
[11] = NCI-H520, stable transfectant H520/pNCRMP1/1, MTT
[12] = Homo sapiens, DU-145, 72 h, transient transfectant DU145/pCIneo (control plasmid), 3-days incubation
[13] = Homo sapiens, DU-145, 72 h, transient transfectant DU145/pNCN3, 3-days incubation
[14] = Homo sapiens, DU-145, 72 h, transient transfectant DU145/pNCRMP1, 3-days incubation

IC50 [2, 12]: 73 nM | IC50 [2, 13]: 60 nM | IC50 [2, 14]: 79 nM | IC50 ([3]; transient transfectant MCF-7/pCIneo (control plasmid), 3-days incubation): 2130 nM | IC50 ([3]; transient transfectant MCF-7/pNCN3, 3-days incubation): 320 nM | IC50 ([3]; transient transfectant MCF-7/pNCRMP1, 3-days incubation): 100 nM
Compound: COc1cccc2c1C(=O)c1c(O)c3c(c(O)c1C2=O)C[C@@](O)(C(=O)CO)C[C@@H]3O[C@H]1C[C@H](N)[C@H](O)[C@H](C)O1 [Adriamycin ™ (doxorubicin), doxorubicin]
IC50 [1, 7]: 740 nM | IC50 [1, 8]: < 400 nM | IC50 [1, 9]: < 400 nM | IC50 [1, 10]: 500 nM | IC50 [1, 11]: < 400 nM

Compound: O=C(/C=C/c1ccc(O)c(O)c1)OCCc1ccccc1 [CAPE, caffeic acid phenethyl ester]
IC50 [1, 7]: > 50000 nM | IC50 [1, 8]: 23000 nM | IC50 [1, 9]: 29000 nM | IC50 [1, 10]: 27000 nM | IC50 [1, 11]: 17000 nM

Compound: O=c1[nH]cc(F)c(=O)[nH]1 [5-fluorouracil]
improvement of chemosensitivity [4]: no improvement of chemosensitivity

IC50 [2, 12]: 460 nM | IC50 [2, 13]: 710 nM | IC50 [2, 14]: 710 nM | IC50 ([5]; transient transfectant PC-3/pCIneo (control plasmid), 3-days incubation, read-out: IC50 of chemical agent): 64000 nM | IC50 ([5]; transient transfectant PC-3/pNCN3, 3-days incubation, read-out: IC50 of chemical agent): > 100000 nM | IC50 ([5]; transient transfectant PC-3/pNCRMP1, 3-days incubation, read-out: IC50 of chemical agent): 33000 nM
Compound: COc1cc([C@@H]2c3cc4c(cc3[C@@H](O[C@@H]3O[C@@H]5CO[C@@H](C)O[C@H]5[C@H](O)[C@H]3O)[C@H]3COC(=O)[C@H]23)OCO4)cc(OC)c1O [Etoposide, etoposide]

Compound: full-length hCRMP-1: human collapsin response mediator protein-1, full-length protein with 572 amino acids (SEQ ID NO: 1)
Anti-proliferation effect (MCF-7 cells): inhibits cancer cell proliferation | Anti-proliferation effect (DU145 cells; DU145, transient transfection, 5-days incubation, normalized to pCI-neo control plasmid): inhibits cancer cell proliferation | Anti-proliferation effect (H460 cells): inhibits cancer cell proliferation | Anti-proliferation effect (H460 cells; listed as full-length CRMP-1): has antiproliferative activity | Anti-proliferation effect (PC-3 cells): inhibits cancer cell proliferation | Anti-proliferation effect (CC-M1 cells): inhibits cancer cell proliferation | antiproliferative activity [6]: no antiproliferative activity

Compound: CN7: active fragment of hCRMP-1, 458-572 of SEQ ID NO: 1 (SEQ ID NOS: 25 and 43)
selectivity on antiproliferative ability (DU145 cells): 28%

Compound: O=P1(N(CCCl)CCCl)NCCCO1 (centres unmarked) [Cyclophosphamide, cyclophosphamide]
IC50 ([2]; Homo sapiens, DU-145, 72 h): > 100000 nM | IC50 ([2]; transient transfectant DU145/pCIneo (control plasmid), 3-days incubation): > 100000 nM | IC50 ([2]; transient transfectant DU145/pNCN3, 3-days incubation): > 100000 nM | IC50 ([5]; read-out: IC50 of chemical agent, transient transfectant PC-3/pCIneo (control plasmid), 3-days incubation): > 100000 nM | IC50 ([5]; read-out: IC50 of chemical agent, transient transfectant PC-3/pNCN3, 3-days incubation): 55000 nM | IC50 ([5]; read-out: IC50 of chemical agent, transient transfectant PC-3/pNCRMP1, 3-days incubation): > 100000 nM

Compound: CN3: active fragment of hCRMP-1, 208-480 of SEQ ID NO: 1 (SEQ ID NOS: 17 and 39)
selectivity on antiproliferative ability (DU145 cells): around 20%
